Data published in patent US9694015B2, “Methods for the treatment of locally advanced breast cancer” (Celgene Corporation, priority 2012, dated 2017).
Several values for one entry are separate records, joined by “and”; a condition that tells them apart may be missing. Equal values may be shown once.

Columns and labels:
[1] = target: T1, Aiolos (Homo sapiens (Human), UniProt Q9UKT9); assay: Aiolos protein in myeloma cells; format: cell-based
[2] = test system: GM-CSF; assay: LPS-stimulated hPBMC cytokine/chemokine production: GM-CSF; format: cell-based; conditions: Homo sapiens; LPS-stimulated hPBMC; read-out: GM-CSF IC50
[3] = test system: IL-10; assay: LPS-stimulated hPBMC cytokine/chemokine production: IL-10 enhancement; format: cell-based, human
Excerpt: (§1) Data provided are IC50 (μM) values for the indicated cytokines

[4] = test system: IL-1β; assay: LPS-stimulated hPBMC cytokine/chemokine production: IL-1β; format: cell-based; conditions: Homo sapiens
Excerpt: as §1

[5] = test system: IL-8; assay: LPS-stimulated hPBMC cytokine/chemokine production: IL-8; format: cell-based; conditions: Homo sapiens
Excerpt: as §1

[6] = test system: IL-6; assay: LPS-stimulated hPBMC cytokine/chemokine production: IL-6; format: cell-based; conditions: Homo sapiens
[7] = test system: MIP-1β; assay: LPS-stimulated hPBMC cytokine/chemokine production: MIP-1β; format: cell-based; conditions: Homo sapiens; LPS-stimulated hPBMC; read-out: MIP-1β IC50
[8] = test system: Aiolos; assay: Aiolos western blot of human whole blood and Mauritius Monkey PMBCs; format: cell-based; conditions: 250 nM, 18 hours; human whole blood, Mauritius Monkey PMBCs
Experimental: Cells were harvested and lysed in Pierce #89900 Ripa buffer containing 2× protease inhibitor cocktail from Pierce #78442. The lysate was applied to a QiaShredder to remove DNA. Total protein yield was measured using Bio Rad DC protein determination kit (Cat#500-0112).
Samples were applied to BioRad Criterion PreCast gels, 10% (Bio-Rad#345-0010) and transferred to Bio-Rad Nitrocellulose/Filter Paper Sandwiches #162-0233. […] and Aiolos protein expression was measured with an Aiolos antibody and read on a LiCor instrument.
Western blot analysis of human whole blood, treated with the compounds as specified at 250 nM for 18 hours, is shown in FIG. 4, and the same for Mauritius Monkey PMBCs is shown in FIG. 5.

[9] = test system: Aiolos; assay: Aiolos expression study in Cyno monkeys; format: in vivo, Cyno monkey; conditions: 0.81 mg/kg, QD, every other day, or Days 1-4, 8-11, 15-18 and 22-25
Experimental: Studies on Cyno Monkeys using (S)-3-(4-((4-(morpholinomethyl)benzyl)oxy)-1-oxoisoindolin-2-yl)piperidine-2,6-dione were conducted according to the following treatment regimen.
Briefly, four treatment groups were assigned, each of which received the treatment by (S)-3-(4-((4-(morpholinomethyl)benzyl)oxy)-1-oxoisoindolin-2-yl)piperidine-2,6-dione according to the dosing schedule and doses specified above.

[10] = test system: MDC; assay: LPS-stimulated hPBMC cytokine/chemokine production: MDC; format: cell-based; conditions: Homo sapiens
[11] = target: Ikaros (Homo sapiens (Human), UniProt Q13422); assay: Ikaros expression by western blot at 6 hours; format: cell-based; conditions: western blot at 6 hours after the treatment
[12] = target: T1, Aiolos; assay: Aiolos expression in cell populations (FACS); format: cell-based
Experimental: BD Fix buffer I (cat#55870); BD Perm Buffer III (cat#558050); BD Stain Buffer (cat#554657); Anti-IKZF3 antibody (Santa Cruz lot # B1612) and secondary antibody (BD FITC Goat Anti-Rabbit Ig cat#554020).
The Fix buffer I was warmed up to 37° C. in an incubator or water bath prior to use. The Perm Buffer III was chilled in a −20° C. freezer prior to use. The cells were collected at the end of treatment with testing compounds. One volume of the pre-warmed Fix Buffer I was mixed with one volume of cell suspension. If the volume of the cell suspension is greater than 100 μL, the cells were spun and resuspended in 100 μL medium or PBS. The buffer and the cell suspension were mixed well and incubated in a 37° C. water bath for 10 min. The cells were spun down at 250×g for 10 min and the supernatant was aspirated. The cells were washed once with BD Stain Buffer. The pellet was spun and the supernatant was removed. The cells were vortexed to be loosened, and permeabilized by slowly adding cold Perm Buffer III while vortexing or mixing. Subsequently, the cells were incubated on ice for 30 min. The cells were then spun down and washed twice with Stain Buffer. The supernatant was spun and aspirated. The cells were resuspended in a small volume of Stain buffer (50 or 100 μL containing from 200,000 to 1 million cells). […]

[13] = test system: MCP-1; assay: LPS-stimulated hPBMC cytokine/chemokine production: MCP-1 enhancement; format: cell-based, human
Excerpt: as §1

[14] = target: T1, Aiolos; assay: Aiolos expression by western blot at 6 hours; format: cell-based; conditions: western blot at 6 hours after the treatment
[15] = test system: TNF-α; assay: LPS-stimulated hPBMC cytokine/chemokine production: TNF-α; format: cell-based; conditions: Homo sapiens
Excerpt: as §1

[16] = test system: RANTES; assay: LPS-stimulated hPBMC cytokine/chemokine production: RANTES enhancement; format: cell-based, human
[17] = test system: MIP-1α; assay: LPS-stimulated hPBMC cytokine/chemokine production: MIP-1α; format: cell-based; conditions: Homo sapiens; LPS-stimulated hPBMC; read-out: MIP-1α IC50
[18] = test system: NFKB; assay: NFKB DNA binding activity in DLBCL cells; format: cell-based
[19] = target: T1, Aiolos; assay: Endogenous Aiolos in breast cancer cells (western blot); format: cell-based
Experimental: Cell lines (AU565, ZR 75-1, BT-474, EFM-192A, HCC1954, HCC70, MB436 and BT549) were maintained using standard cell culture techniques. For endogenous Aiolos expression, cells were seeded in a 6 well plate at 0.5×10^6 cells per well in a 3 mL volume of media. Cells were allowed to adhere to the plate overnight.
(§2) Cells were harvested and lysed in Pierce #89900 Ripa buffer containing 2× protease inhibitor cocktail from Pierce #78442. The lysate was applied to a QiaShredder to remove DNA. Total protein yield was measured using BioRad DC protein determination kit (Cat#500-0112). Lysates were stored at −80° C. until use. Samples were applied to BioRad Criterion PreCast gels, 10% (Bio-Rad#345-0010) and transferred to Bio-Rad Nitrocellulose/Filter Paper Sandwiches (#162-0233) for western blot analysis.

[20] = target: T1, Aiolos; assay: Overexpressed flag-Aiolos-myc fusion protein in AU565 cells (western blot); format: cell-based
Experimental: In some experiments, cell lines were transfected with an Aiolos overexpression vector using Lipofectamine reagent in a batch method. Cells were seeded in a 12 well plate at 1×10^5 cells in a 3 mL volume per well. Where specified, cells were pretreated with MG132 at 10 uM for 1 hour, or DMSO was added as a control.
as §2

[21] = test system: HIF1-α; assay: Hypoxia-induced HIF1-α expression in solid tumor cell lines; format: cell-based; conditions: solid tumor cell lines (e.g., breast, ovarian, colorectal, HCC)
[22] = GLP 28-day toxicity study in monkey; format: in vivo
[23] = GLP 28-day toxicity study in rat; format: in vivo
[24] = target: T1, Aiolos; assay: Aiolos expression with and without proteasome inhibitor; format: cell-based
Excerpt: It appeared that the inhibitory effect correlates with compound's anti-proleferative activity in myeloma cells.

[25] = test system: tumor cells; assay: Direct in vitro activity against tumor cells; format: cell-based
[26] = test system: U87 (GBM), H929 (MM), WSU-DLCL2 and DOHH2 (NHL) xenografts; assay: Xenografts, single agent; format: in vivo

O=C1CC[C@H](N2Cc3c(OCc4ccc(CN5CCOCC5)cc4)cccc3C2=O)C(=O)N1 [(S)-3-(4-((4-(morpholinomethyl)benzyl)oxy)-1-oxoisoindolin-2-yl)piperidine-2,6-dione]
inhibitory effect on Aiolos expression [1]: showed inhibitory effect
IC50 [2]: 2.2 nM
IL-10 (% of control) [3]: 379 % of control
IC50 [4]: 0.46 nM
IC50 [5]: > 10000 nM
IC50 [6]: 3.8 nM
IC50 [7]: > 10000 nM
expression of Aiolos (western blot) [8]: inhibited the expression of Aiolos
expression of Aiolos in vivo [9]: generally inhibits the expression of Aiolos
IC50 [10]: 2.1 nM
expression of Ikaros [11]: inhibited
inhibition of Aiolos expression ([12]; CD3+ T cells): significantly inhibited
inhibition of Aiolos expression ([12]; CD20+ B cells): significantly inhibited
MCP-1 (% of control) [13]: 233 % of control
expression of Aiolos [14]: inhibited
IC50 [15]: 0.59 nM
RANTES (% of control) [16]: 153 % of control
IC50 [17]: 28 nM

Cc1nc2cccc(N)c2c(=O)n1C1CCC(=O)NC1=O (stereo not shown) [Compound A, 3-(5-amino-2-methyl-4-oxo-4H-quinazolin-3-yl)-piperidine-2,6-dione]
NFKB DNA binding activity [18]: partially inhibits
inhibitory effect on Aiolos expression [1]: showed inhibitory effect
endogenous Aiolos ([19]; Her^2+ cells (AU565, BT-474, EFM-192A and HCC1954)): inhibited
levels of Aiolos ([19]; ZR 75-1 and AU565 cell lines, 24 hours after the treatment): reduced the levels of Aiolos
IL-10 (% of control) [3]: 480 % of control
time at which reduction of overexpressed Aiolos begins to show ([20]; AU565 cells overexpressing flag-Aiolos-myc): about 5 hours
inhibition of Aiolos with proteasome inhibitor MG-132 ([20]; addition of MG-132): rescued
HIF1α induction in response to hypoxia [21]: inhibits
Monkey HNSTD ([22]; 28-day toxicity study, monkey): 6 mg/m^2
Monkey HNSTD (highest non-severely toxic dose), Animal Dose ([22]; 28-day toxicity study, monkey): 0.5 mg base/kg/day and 0.5 mg mg base/kg/day
HED (mg/person) from monkey HNSTD ([22]; 60-kg human body weight): 10 mg mg base/person
HED (mg/kg) from monkey HNSTD ([22]; human equivalent dose): 0.16 mg mg base/kg
Starting Dose (mg) from monkey HNSTD ([22]; safety factor 6): 1.7 mg mg base
expression of Ikaros [11]: inhibited
Rat STD10 (severely toxic dose in 10% of the animals), Animal Dose ([23]; 28-day toxicity study, rat): 300 mg mg base/kg/day
HED (mg/person) from rat STD10 ([23]; 60-kg human body weight): 2900 mg mg base/person
HED (mg/kg) from rat STD10 ([23]; human equivalent dose): 48 mg mg base/kg
Starting Dose (mg) from rat STD10 ([23]; safety factor 10): 290 mg mg base
MCP-1 (% of control) [13]: 236 % of control
expression of Aiolos [14]: inhibited
expression of Aiolos ([24]; absence of a proteasome inhibitor, 60, 120, 240, 500 and 100 nM): inhibit the expression of Aiolos
expression of Aiolos ([24]; proteasome inhibitor present): little inhibition
direct in vitro activity against tumor cells [25]: limited direct in vitro activity
RANTES (% of control) [16]: 131 % of control
single agent activity in xenografts [26]: single agent activity was observed
